Source: ChEMBL document CHEMBL4808193, “[11]-Chaetoglobosins from Pseudeurotium bakeri Induce G2/M Cell Cycle Arrest and Apoptosis in Human Cancer Cells” (J Nat Prod, 2021)
Calls of active or inactive are those of the source. The rule behind the calls is not given here.

Key:
A-427 [1] = assay: Cell cycle arrest in human A-427 cells assessed as accumulation at G2/M phase at 5 uM measured after 24 hrs by PI staining based flow cytometry (reference value: 19.81%); type: functional
MCF7 [2] = assay: Cell cycle arrest in human MCF7 cells assessed as accumulation at S phase at 7.5 uM measured after 24 hrs by PI staining based flow cytometry (reference value: 24.64%; type: functional
A-427 [3] = assay: Cell cycle arrest in human A-427 cells assessed as accumulation at G2/M phase at 2.5 uM measured after 24 hrs by PI staining based flow cytometry (reference value: 19.81%); type: functional
MCF7 [4] = assay: Cell cycle arrest in human MCF7 cells assessed as accumulation at G0/G1 phase at 5 uM measured after 24 hrs by PI staining based flow cytometry (reference value: 60.23%); type: functional
MCF7 [5] = assay: Cytotoxicity against human MCF7 cells assessed as reduction in cell viability by MTT assay; type: functional, cell-based
MCF7 [6] = assay: Cell cycle arrest in human MCF7 cells assessed as accumulation at G2/M phase at 7.5 uM measured after 24 hrs by PI staining based flow cytometry (reference value: 15.13%); type: functional
MCF7 [7] = assay: Induction of apoptosis in human MCF7 cells assessed as late apoptotic cells at 7.5 uM measured after 24 hrs by Annexin V-FITC/propidium iodide staining based flow cytometric analysis (reference value: 1.11%); type: functional
MCF7 [8] = assay: Cell cycle arrest in human MCF7 cells assessed as accumulation at S phase at 5 uM measured after 24 hrs by PI staining based flow cytometry (reference value: 24.64%); type: functional
A-427 [9] = assay: Cell cycle arrest in human A-427 cells assessed as accumulation at S phase at 3.75 uM measured after 24 hrs by PI staining based flow cytometry (reference value: 27.27%); type: functional
HT-29 = assay: Cytotoxicity against human HT-29 cells assessed as reduction in cell viability by MTT assay; type: functional, cell-based
A-427 [10] = assay: Cell cycle arrest in human A-427 cells assessed as accumulation at G2/M phase at 3.75 uM measured after 24 hrs by PI staining based flow cytometry (reference value: 19.81%); type: functional
A-427 [11] = assay: Induction of apoptosis in human A-427 cells assessed as early apoptotic cells at 3.75 uM measured after 24 hrs by Annexin V-FITC/propidium iodide staining based flow cytometric analysis (reference value: 4.98%); type: functional
A-427 [12] = assay: Induction of apoptosis in human A-427 cells assessed as late apoptotic cells at 2.5 uM measured after 24 hrs by Annexin V-FITC/propidium iodide staining based flow cytometric analysis (reference value: 3.18%); type: functional
MCF7 [13] = assay: Induction of apoptosis in human MCF7 cells assessed as early apoptotic cells at 7.5 uM measured after 24 hrs by Annexin V-FITC/propidium iodide staining based flow cytometric analysis (reference value: 4.82%); type: functional
A-427 [14] = assay: Cell cycle arrest in human A-427 cells assessed as accumulation at G0/G1 phase at 3.75 uM measured after 24 hrs by PI staining based flow cytometry (reference value: 52.93%); type: functional
MCF7 [15] = assay: Induction of apoptosis in human MCF7 cells assessed as early apoptotic cells at 5 uM measured after 24 hrs by Annexin V-FITC/propidium iodide staining based flow cytometric analysis (reference value: 4.82%); type: functional
MCF7 [16] = assay: Induction of apoptosis in human MCF7 cells assessed as increase in cytochrome c level at 5 to 10 uM incubated for 24 hrs by Western blot analysis; type: functional, cell-based; details: dose 5-10 µM
HepG2 = assay: Cytotoxicity against human HepG2 cells assessed as reduction in cell viability by MTT assay; type: functional, cell-based
MCF7 [17] = assay: Induction of apoptosis in human MCF7 cells assessed as increase in cleaved caspase 3 level at 5 to 10 uM incubated for 24 hrs by Western blot analysis; type: functional, cell-based; details: dose 5-10 µM
HCT-116 = assay: Cytotoxicity against human HCT-116 cells assessed as reduction in cell viability by MTT assay; type: functional, cell-based
A-427 [18] = assay: Induction of apoptosis in human A-427 cells assessed as late apoptotic cells at 3.75 uM measured after 24 hrs by Annexin V-FITC/propidium iodide staining based flow cytometric analysis (reference value: 3.18%); type: functional
MCF7 [19] = assay: Induction of apoptosis in human MCF7 cells assessed as increase in cleaved PARP level at 5 to 10 uM incubated for 24 hrs by Western blot analysis; type: functional, cell-based; details: dose 5-10 µM
A-427 [20] = assay: Induction of apoptosis in human A-427 cells assessed as early apoptotic cells at 2.5 uM measured after 24 hrs by Annexin V-FITC/propidium iodide staining based flow cytometric analysis (reference value: 4.98%); type: functional
HeLa = assay: Cytotoxicity against human HeLa cells assessed as reduction in cell viability by MTT assay; type: functional, cell-based
MCF7 [21] = assay: Cell cycle arrest in human MCF7 cells assessed as accumulation at G2/M phase at 5 uM measured after 24 hrs by PI staining based flow cytometry (reference value: 15.13%); type: functional
MCF7 [22] = assay: Cell cycle arrest in human MCF7 cells assessed as accumulation at S phase at 10 uM measured after 24 hrs by PI staining based flow cytometry (reference value: 24.64%); type: functional
MCF7 [23] = assay: Induction of apoptosis in human MCF7 cells assessed as increase in Bax protein level at 5 to 10 uM incubated for 24 hrs by Western blot analysis; type: functional, cell-based; details: dose 5-10 µM
A-427 [24] = assay: Induction of apoptosis in human A-427 cells assessed as early apoptotic cells at 5 uM measured after 24 hrs by Annexin V-FITC/propidium iodide staining based flow cytometric analysis (reference value: 4.98%); type: functional
A-427 [25] = assay: Cytotoxicity against human A-427 cells assessed as reduction in cell viability by MTT assay; type: functional, cell-based
A-427 [26] = assay: Cell cycle arrest in human A-427 cells assessed as accumulation at G0/G1 phase at 5 uM measured after 24 hrs by PI staining based flow cytometry (reference value: 52.93%); type: functional
MCF7 [27] = assay: Induction of apoptosis in human MCF7 cells assessed as early apoptotic cells at 10 uM measured after 24 hrs by Annexin V-FITC/propidium iodide staining based flow cytometric analysis (reference value: 4.82%); type: functional
MCF7 [28] = assay: Induction of apoptosis in human MCF7 cells assessed as late apoptotic cells at 10 uM measured after 24 hrs by Annexin V-FITC/propidium iodide staining based flow cytometric analysis (reference value: 1.11%); type: functional
A-427 [29] = assay: Cell cycle arrest in human A-427 cells assessed as accumulation at G0/G1 phase at 2.5 uM measured after 24 hrs by PI staining based flow cytometry (reference value: 52.93%); type: functional
A-427 [30] = assay: Cell cycle arrest in human A-427 cells assessed as accumulation at S phase at 5 uM measured after 24 hrs by PI staining based flow cytometry (reference value: 27.27%); type: functional
MCF7 [31] = assay: Induction of apoptosis in human MCF7 cells assessed as increase in PARP level at 5 to 10 uM incubated for 24 hrs by Western blot analysis; type: functional, cell-based; details: dose 5-10 µM
A549 = assay: Cytotoxicity against human A549 cells assessed as reduction in cell viability by MTT assay; type: functional, cell-based
MCF7 [32] = assay: Cell cycle arrest in human MCF7 cells assessed as accumulation at G0/G1 phase at 10 uM measured after 24 hrs by PI staining based flow cytometry (reference value: 60.23%); type: functional
A-427 [33] = assay: Induction of apoptosis in human A-427 cells assessed as late apoptotic cells at 5 uM measured after 24 hrs by Annexin V-FITC/propidium iodide staining based flow cytometric analysis (reference value: 3.18%); type: functional
MCF7 [34] = assay: Induction of apoptosis in human MCF7 cells assessed as late apoptotic cells at 5 uM measured after 24 hrs by Annexin V-FITC/propidium iodide staining based flow cytometric analysis (reference value: 1.11%); type: functional
MCF7 [35] = assay: Cell cycle arrest in human MCF7 cells assessed as accumulation at G0/G1 phase at 7.5 uM measured after 24 hrs by PI staining based flow cytometry (reference value: 60.23%); type: functional
L02 = assay: Cytotoxicity against human L02 cells assessed as reduction in cell viability by MTT assay; type: cell-based
A-427 [36] = assay: Cell cycle arrest in human A-427 cells assessed as accumulation at S phase at 2.5 uM measured after 24 hrs by PI staining based flow cytometry (reference value: 27.27%); type: functional
MCF7 [37] = assay: Cell cycle arrest in human MCF7 cells assessed as accumulation at G2/M phase at 10 uM measured after 24 hrs by PI staining based flow cytometry (reference value: 15.13%); type: functional

Compound: CC1=C[C@@H]2/C=C/C[C@H](C)CC/C=C\C(=O)[C@]23C(=O)N[C@@H](Cc2c[nH]c4ccccc24)[C@@H]3[C@@H]1C
- Activity (A-427 [1]): 71.12%
- Activity (MCF7 [2]): 18.43%
- Activity (A-427 [3]): 62.86%
- Activity (MCF7 [4]): 44.64%
- IC50 (MCF7 [5]): 6.2 µM
- Activity (MCF7 [6]): 48.75%
- Activity (MCF7 [7]): 6.76%
- Activity (MCF7 [8]): 13.15%
- Activity (A-427 [9]): 19.02%
- IC50 (HT-29): 6.7 µM
- Activity (A-427 [10]): 67.84%
- Activity (A-427 [11]): 15.57%
- Activity (A-427 [12]): 3.07%
- Activity (MCF7 [13]): 19.53%
- Activity (A-427 [14]): 13.13%
- Activity (MCF7 [15]): 11.86%
- Activity (MCF7 [16]): Active
- IC50 (HepG2): 9.1 µM
- Activity (MCF7 [17]): Active
- IC50 (HCT-116): 8 µM
- Activity (A-427 [18]): 24.36%
- Activity (MCF7 [19]): Active
- Activity (A-427 [20]): 11.53%
- IC50 (HeLa): 7.1 µM
- Activity (MCF7 [21]): 42.22%
- Activity (MCF7 [22]): 12.37%
- Activity (MCF7 [23]): Active
- Activity (A-427 [24]): 20.14%
- IC50 (A-427 [25]): 4.7 µM
- Activity (A-427 [26]): 11.04%
- Activity (MCF7 [27]): 25.44%
- Activity (MCF7 [28]): 7.12%
- Activity (A-427 [29]): 15.31%
- Activity (A-427 [30]): 17.84%
- Activity (MCF7 [31]): Active
- IC50 (A549): 8.2 µM
- Activity (MCF7 [32]): 28.08%
- Activity (A-427 [33]): 22.56%
- Activity (MCF7 [34]): 4.68%
- Activity (MCF7 [35]): 32.82%
- IC50 (L02): 44.1 µM
- Activity (A-427 [36]): 21.83%
- Activity (MCF7 [37]): 59.55%
